Reference: US20110177964A1, “CHEMOSENSORY ARRAYS” (THE TRUSTEES OF PRINCETON UNIVERSITY, priority 2009, published 2011)
Numbering of substitutions follows the chain as printed.

Legend:
H-20 (R1) receptor = target: T1, H-20 (R1) receptor (Homo sapiens, UniProt Q15391, A193V/A252V/A98G/F243I/I251T/K54E/R253K); test: Yeast FUS1-lacZ β-galactosidase reporter assay, single receptor-single ligand calibration curves fitted by Bayesian nested sampling; type: cell-based; conditions: for ΔG (receptor-ligand binding free energy): H-20 (R1) expressed in yeast, average ± s.d. from posterior; for A (receptor efficacy): H-20 (R1), 1 = full agonist, 0 = full antagonist
T1 construct: expressed in transfected cells; host or cells: Saccharomyces yeast; strain CY10981 with FUS1-LacZ plasmid for β-galactosidase assays, strain CY10560 (FUS1-HIS3) for growth selection
T1 sequence (Q15391 with tags, fused parts or gaps K54E/A98G/A193V/F243I/I251T/A252V/R253K): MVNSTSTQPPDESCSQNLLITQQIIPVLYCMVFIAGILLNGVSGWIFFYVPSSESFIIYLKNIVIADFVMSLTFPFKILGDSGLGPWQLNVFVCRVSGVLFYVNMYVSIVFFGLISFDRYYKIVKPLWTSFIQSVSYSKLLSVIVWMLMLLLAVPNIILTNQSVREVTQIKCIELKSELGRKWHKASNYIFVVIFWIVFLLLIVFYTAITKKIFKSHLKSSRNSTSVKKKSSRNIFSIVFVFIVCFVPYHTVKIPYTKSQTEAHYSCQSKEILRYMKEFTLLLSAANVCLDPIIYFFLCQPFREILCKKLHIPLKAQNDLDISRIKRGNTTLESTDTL
From the text: (§1) To assess receptor ligand interactions quantitatively in the chemosensor array, the receptors were functionally expressed in yeast. To do so, the yeast pheromone receptor was replaced with one of the sensor GPCRs in strains in which the pheromone response pathway was modified to respond to the heterologous receptor by inducing transcription of the E. coli lacZ gene. See the example section below. In this fashion, the extent of GPCR activation following ligand addition could be monitored as the level of β-galactosidase produced in the cell, which was measured using a fluorescence-based assay. See the example section below.
(§2) Receptor responses to binding of a single ligand. It was assumed that the observed signal in the receptor-bearing reporter strain is proportional to the probability that the receptor is bound by the ligand. This proportionality value, A, which is referred to as the receptor efficacy, can range from 1, for a full agonist, to 0, for a full antagonist, with intermediate values indicating partial agonist activity. In the simplest case of a single receptor interacting with a single ligand, the amount of activation of the reporter in the receptor bearing strain is given by:
(§3) where A is the receptor efficacy, ΔG is the receptor-ligand binding free energy, b is the background intensity, β=1/kBT (kB is the Boltzmann constant, and T is the temperature), and μ^l=kBT log n^l, which is the chemical potential, where n^l is the ligand concentration. In the example of fluorescing products, I can be measured by a fluorescent assay, but the intensity of any report may be utilized. […] In this example, the four receptors are R1: H-20, R2: K-3, and R3: L-3, R4: 2211. See the example section below for details regarding these receptors. […] For each curve, intensity normalized by the maximum intensity on the plate is plotted against log10 n (n is the ligand concentration in M). The error bars on each curve are from four biological replicates. The single receptor-single ligand binding curves can be used to calibrate the biophysical model (Eq. (1)) by inferring ΔG, A and b for each receptor-ligand combination and knowledge of μ^l. Specifically, Bayesian inference is applied. Referring to FIG. 4, the posterior probability P(ΔG, A, b, σ|{Ĩ}) is found by nested sampling (see below), where Ĩ=(l=1 . . . N) is the lth fluorescent and a is the noise parameter. […] This step provides calibration by returning the most likely value of ΔG, A and b for each receptor-ligand pair, as well as a value σ, which represents the noise in the response. The average value of each parameter obtained by marginalization of the posterior probability can be subsequently used for analysis of a mixture of compounds.
(§4) In this example, yeast cultures expressing each of the four mutant receptors (2211, H-20, K-3 and L-3) were grown overnight and diluted to OD600 of […] in flasks. Cultures were then grown to an OD600 of 0.1-0.2 and 80 μl of culture was aliquotted into deep-well 384 well plates along with 20 μL of ligand. Cultures in the 384 well plates were incubated with vigorous mixing for 4 hours (H-20, K-3, L-3) or overnight (2211). 50 μL of each sample was transferred to a black 384 well plate containing 25 μL fluorescein/lysis solution (as described in Chambers J, et al.). Fluorescence was read on a PerkinElmer fluorescent plate reader.

K-3 (R2) receptor = target: T2, K-3 (R2) receptor (Homo sapiens, UniProt Q15391, A193V/A252V/A98G/E278G/F243I/K54E); test: as above; type: cell-based; conditions: for ΔG (receptor-ligand binding free energy): K-3 (R2) expressed in yeast, average ± s.d. from posterior; for A (receptor efficacy): K-3 (R2), 1 = full agonist, 0 = full antagonist
T2 construct: expressed in transfected cells; host or cells: Saccharomyces yeast; strain CY10981 with FUS1-LacZ plasmid for β-galactosidase assays, strain CY10560 (FUS1-HIS3) for growth selection
T2 sequence (Q15391 with tags, fused parts or gaps K54E/A98G/A193V/F243I/A252V/E278G): T1 sequence (Q15391 with tags, fused parts or gaps K54E/A98G/A193V/F243I/I251T/A252V/R253K) with T251I, K253R, E278G
From the text: as §1, §2, §3, §4

L-3 (R3) receptor = target: T3, L-3 (R3) receptor (Homo sapiens, UniProt Q15391, A193V/A252V/A285S/A98G/F243I/K54E/L281V/L282F); test: as above; type: cell-based; conditions: for ΔG (receptor-ligand binding free energy): L-3 (R3) expressed in yeast, average ± s.d. from posterior; for A (receptor efficacy): L-3 (R3), 1 = full agonist, 0 = full antagonist
T3 construct: expressed in transfected cells; host or cells: Saccharomyces yeast; strain CY10981 with FUS1-LacZ plasmid for β-galactosidase assays
T3 sequence (Q15391 with tags, fused parts or gaps K54E/A98G/A193V/F243I/A252V/L281V/L282F/A285S): T1 sequence (Q15391 with tags, fused parts or gaps K54E/A98G/A193V/F243I/I251T/A252V/R253K) with T251I, K253R, L281V, L282F, A285S
From the text: as §1, §2, §3, §4

2211 (R4) receptor = target: T4, 2211 (R4) receptor (Homo sapiens, UniProt Q15391, A193V/A252V/A98G/F243I/K54E); test: as above; type: cell-based, yeast expressing yeast expressing yeast expressing yeast expressing human receptor receptor receptor receptor; conditions: for ΔG (receptor-ligand binding free energy): 2211 (R4) expressed in yeast, average ± s.d. from posterior; for A (receptor efficacy): 2211 (R4), 1 = full agonist, 0 = full antagonist
T4 construct: expressed in transfected cells; host or cells: Saccharomyces yeast; strain CY10981 with FUS1-LacZ plasmid for β-galactosidase assays, strain CY10560 (FUS1-HIS3) for growth selection
T4 sequence (Q15391 with tags, fused parts or gaps K54E/A98G/A193V/F243I/A252V): T1 sequence (Q15391 with tags, fused parts or gaps K54E/A98G/A193V/F243I/I251T/A252V/R253K) with T251I, K253R
From the text: as §1, §2, §3, §4

2211 receptor = target: T5, 2211 receptor (Homo sapiens, UniProt Q15391, A193V/A252V/A98G/F243I/K54E); test: Yeast growth plate assay (FUS1-HIS3 reporter) on selective media containing ligand; type: cell-based; conditions: 2211 (parent) receptor, selective plates with ligand
T5 construct: expressed in transfected cells; host or cells: Saccharomyces yeast; strain CY10981 with FUS1-LacZ plasmid for β-galactosidase assays, strain CY10560 (FUS1-HIS3) for growth selection
T5 sequence (Q15391 with tags, fused parts or gaps K54E/A98G/A193V/F243I/A252V): T1 sequence (Q15391 with tags, fused parts or gaps K54E/A98G/A193V/F243I/I251T/A252V/R253K) with T251I, K253R
From the text: Mutagenesis and selection of sensitized receptor mutants: The entire UDPG receptor gene was mutagenized via errorprone mutagenesis to an estimated frequency of −2-5 mutations/kb following the Mutazyme protocol. […] A total of (1-2)×10^5 colonies were screened by replica plating to SC-His medium (Kaiser, C., Michaelis, S, and Mitchell, A. (1994) Methods in Yeast Genetics: A Cold Spring Harbor Laboratory Course Manual. Cold Spring Harbor Laboratory Press, Cold Spring Harbor, N.Y., which is incorporated herein by reference as if fully set forth) with or without ligand. Yeast growth media was supplemented by 1 mM 3AT, a competitive inhibitor of the HIS3 reporter gene product, which sets the threshold for reporter gene activation.
Cells were transformed with a plasmid library carrying the randomly mutated human UDPG receptor gene.
The 20 receptors isolated in this primary screen were subsequently retested for growth in the presence of lower concentrations of each ligand, to ascertain whether the receptor had significant changes in ligand preference. […] To determine whether the receptors that lacked appreciable changes in ligand specificity were indeed mutants and to verify the complexity of the mutant library, the DNA encoding each receptor was sequenced.

K-3 mutant receptor = target: T6, K-3 mutant receptor (Homo sapiens, UniProt Q15391, A193V/A252V/A98G/E278G/F243I/K54E); test: as above; type: cell-based; conditions: K-3 mutant relative to its parent H-20
T6 construct: expressed in transfected cells; host or cells: Saccharomyces yeast; strain CY10981 with FUS1-LacZ plasmid for β-galactosidase assays, strain CY10560 (FUS1-HIS3) for growth selection
T6 sequence (Q15391 with tags, fused parts or gaps K54E/A98G/A193V/F243I/A252V/E278G): T1 sequence (Q15391 with tags, fused parts or gaps K54E/A98G/A193V/F243I/I251T/A252V/R253K) with T251I, K253R, E278G
From the text: The ‘HIAR’ motif in transmembrane domain 6 was targeted. […] Libraries containing the randomized HIAR motif were constructed in vivo by cotransforming strain CY10560 cells with three DNA fragments: a 2211 receptor plasmid cut to remove the HIAR domain and a pair of PCR products synthesized with oligonucleotides randomized over the HIAR region and 50 and 30 extensions overlapping both sides of the gap in the plasmid. […] The 20 receptors isolated in this primary screen were subsequently retested for growth in the presence of lower concentrations of each ligand, to ascertain whether the receptor had significant changes in ligand preference. […] To determine whether the receptors that lacked appreciable changes in ligand specificity were indeed mutants and to verify the complexity of the mutant library, the DNA encoding each receptor was sequenced.
H-20 was selected as the template for mutagenesis of three additional motifs, ‘AxxFY’ and ‘NMY’ in TM3 and ‘KExT’ in TM7. These mutants were tested in the same manner as the HIAR mutants, focusing only on mutants with clear changes in relative growth on one or more ligands.

Row | Compound | ΔG (receptor-ligand binding free energy) (H-20 (R1) receptor) | A (receptor efficacy) (H-20 (R1) receptor) | agonist/antagonist character (H-20 (R1) receptor; H-20, small A, large negative ΔG) | ΔG (receptor-ligand binding free energy) (K-3 (R2) receptor) | A (receptor efficacy) (K-3 (R2) receptor) | agonist/antagonist character (K-3 (R2) receptor; K-3, small A, large negative ΔG) | ΔG (receptor-ligand binding free energy) (L-3 (R3) receptor) | A (receptor efficacy) (L-3 (R3) receptor) | agonist/antagonist character (L-3 (R3) receptor; L-3, small A, large negative ΔG) | ΔG (receptor-ligand binding free energy) (2211 (R4) receptor) | A (receptor efficacy) (2211 (R4) receptor) | agonist/antagonist character (2211 (R4) receptor; 2211, small A, large negative ΔG) | receptor response to ligand (yeast growth) (2211 receptor) | yeast growth in response to ligand (K-3 mutant receptor)
1 | O=c1ccn([C@@H]2O[C@H](COP(=O)(O)OP(=O)(O)O)[C@@H](O)[C@H]2O)c(=O)[nH]1 [UDP, uridine diphosphate] | -7.42 ± .05 kcal/mol | .008 ± .009 | antagonist | -8.2 ± .2 kcal/mol | .18 ± .01 | antagonist | -7.4 ± .1 kcal/mol | .02 ± .02 | antagonist | -10.3 ± .3 kcal/mol | .010 ± .009 | antagonist | do not activate | grew
2 | CC(=O)N[C@H]1[C@@H](OP(=O)(O)OP(=O)(O)OC[C@H]2O[C@@H](n3ccc(=O)[nH]c3=O)[C@H](O)[C@@H]2O)O[C@H](CO)[C@H](O)[C@@H]1O [UDP-GalNAc, UDP-N-acetylgaltactosamine] | – | – | – | – | – | – | – | – | – | – | – | – | responds | –
3 | CC(=O)N[C@H]1[C@@H](OP(=O)(O)OP(=O)(O)OC[C@H]2O[C@@H](n3ccc(=O)[nH]c3=O)[C@H](O)[C@@H]2O)O[C@H](CO)[C@@H](O)[C@@H]1O [UDP-GlcNAc, UDP-N-acetylglucosamine] | -6.16 ± .06 kcal/mol | .51 ± .01 | – | -5.36 ± .06 kcal/mol | .55 ± .01 | – | -5.60 ± .06 kcal/mol | .43 ± .01 | – | -8.00 ± .09 kcal/mol | .89 ± .04 | – | responds | –
4 | Cc1cn([C@H]2C[C@H](O)[C@@H](COP(=O)(O)OP(=O)(O)O[C@H]3O[C@H](CO)[C@@H](O)[C@H](O)[C@H]3O)O2)c(=O)[nH]c1=O [dTDP-glucose] | – | – | – | – | – | – | – | – | – | – | – | – | do not activate | –
